Experimental data from US20190167716A9, “Use of Electrolyzed Water for Treatment and Prevention of Common Livestock Diseases and Conditions, Including PRRS” (priority 2013, published 2019).

Test system: streptococcus
Experiment: Fog test in bi-room swine confinement infected with streptococcus
Assay type: in vivo
Settings: both rooms after a course of R-pen; recurred 10 days later in the control room
Experimental: A test was conducted in a 70′×280′ bi-room configuration swine confinement in a wean to finish operation infected with streptococcus symptoms and showing severe symptoms. The swine confinement included a common effluent pit with center dividing wall and pit level equalization cutouts at the base. Each room included a standard layout with […] and a 24 inch gated alleyway. Capacity was 2480 head, each room was 70 feet by 140 feet; one room was used as the test room to receive the electrolyzed water treatment, the other as a control. Two high pressure lines, centered through the barn at 12 inches below the ceiling, were used to deliver the electrolyzed water. The water was delivered via 60 nozzles in the treatment room, rated at 0.020 gallons per minute, two for each pen, at 1000 psi. The output of fog or mist to the room was 1.2 gallon per minute, delivered by 1000 psi 3 gpm 2 horsepower pump, actuated by a preset timer. The fog was administered for about 1 minute, each of four times a day at generally equally spaced intervals. Total was about 4.8 gallons per 24 hour period.
Both rooms were filled Oct. 17, 2013. Treatment began 1 week later and continued for 15 weeks. […] The death report, per room per week during the 15 week trial was as follows: […]

CC1(C)S[C@@H]2[C@H](NC(=O)Cc3ccccc3)C(=O)N2[C@H]1C(=O)[O-].[K+] [R-pen]
strep symptoms: decrease in strep symptoms
